Experimental data reported in patent publication US20250257053A1, “PESTICIDALLY ACTIVE HETEROCYCLIC DERIVATIVES WITH SULFUR CONTAINING SUBSTITUENTS” (SYNGENTA CROP PROTECTION AG, priority 2021, published 2025).

How the values were obtained:
Type in all cases: in vivo
[1] = test system: Plutella xylostella (Diamond Back Moth); assay: Activity against Plutella xylostella (diamond back moth), artificial diet in 24-well microtiter plates; conditions: 192 h, application rate 200 ppm, eggs, 8 days after infestation, in comparison to untreated samples, read-out: effect in at least one of the two categories (mortality or growth inhibition)
Description: Example B6: Activity Against Plutella xylostella (Diamond Back Moth)
24-well microtiter plates with artificial diet were treated with aqueous test solutions prepared from 10′000 ppm DMSO stock solutions by pipetting. After drying, Plutella eggs were pipetted through a plastic stencil onto a gel blotting paper and the plate was closed with it. The samples were assessed for mortality and growth inhibition in comparison to untreated samples 8 days after infestation. The following compounds gave an effect of at least 80% in at least one of the two categories (mortality or growth inhibition) at an application rate of 200 ppm: P2, P3, P4, P5, P7, P9, P10, P11, P13, P14, P15.

[2] = test system: Euschistus heros (Neotropical Brown Stink Bug); assay: Activity against Euschistus heros (neotropical brown stink bug), sprayed soybean leaves on agar; conditions: 120 h, application rate 200 ppm, N2 nymphs, 5 days after infestation, in comparison to untreated samples, read-out: effect in at least one of the two categories (mortality or growth inhibition)
Description: Example B3: Activity Against Euschistus heros (Neotropical Brown Stink Bug)
Soybean leaves on agar in 24-well microtiter plates were sprayed with aqueous test solutions prepared from 10′000 ppm DMSO stock solutions. After drying the leaves were infested with N2 nymphs. The samples were assessed for mortality and growth inhibition in comparison to untreated samples 5 days after infestation.

[3] = test system: Myzus persicae (Green Peach Aphid); assay: Activity against Myzus persicae (green peach aphid), systemic activity, pea seedling roots in test solution; conditions: 144 h, test rate 24 ppm, aphid population of mixed ages, 6 days after placing seedlings into test solutions
Description: Example B5: Activity Against Myzus persicae (Green Peach Aphid) Systemic Activity
Roots of pea seedlings infested with an aphid population of mixed ages were placed directly into aqueous test solutions prepared from 10′000 DMSO stock solutions. The samples were assessed for mortality 6 days after placing seedlings into test solutions.

[4] = test system: Myzus persicae (Green Peach Aphid); assay: Activity against Myzus persicae (green peach aphid), feeding/contact activity, sunflower leaf discs; conditions: foliar, 144 h, application rate 200 ppm, aphid population of mixed ages, 6 days after infestation
Description: Example B4: Activity Against Myzus persicae (Green Peach Aphid) Feeding/Contact Activity
Sunflower leaf discs were placed onto agar in a 24-well microtiter plate and sprayed with aqueous test solutions prepared from 10′000 ppm DMSO stock solutions. After drying, the leaf discs were infested with an aphid population of mixed ages. The samples were assessed for mortality 6 days after infestation.

[5] = test system: Spodoptera littoralis (Egyptian Cotton Leaf Worm); assay: Activity against Spodoptera littoralis (Egyptian cotton leaf worm), sprayed cotton leaf discs; conditions: foliar, 72 h, application rate 200 ppm, five L1 larvae, 3 days after infestation, in comparison to untreated samples, read-out: control (at least one of mortality, anti-feedant effect, growth inhibition)
Description: Example B7: Activity Against Spodoptera littoralis (Egyptian Cotton Leaf Worm)
Cotton leaf discs were placed onto agar in 24-well microtiter plates and sprayed with aqueous test solutions prepared from 10′000 ppm DMSO stock solutions. After drying the leaf discs were infested with five L1 larvae. The samples were assessed for mortality, anti-feeding effect, and growth inhibition in comparison to untreated samples 3 days after infestation. Control of Spodoptera littoralis by a test sample is given when at least one of the categories mortality, anti-feedant effect, and growth inhibition is higher than the untreated sample.

[6] = test system: Diabrotica Balteata (Corn Root Worm); assay: Activity against Diabrotica balteata (corn root worm), sprayed maize sprouts on agar; conditions: 96 h, application rate 200 ppm, L2 larvae, 4 days after infestation, in comparison to untreated samples, read-out: effect in at least one of the two categories (mortality or growth inhibition)
Description: Example B2: Activity Against Diabrotica Balteata (Corn Root Worm)
Maize sprouts placed onto an agar layer in 24-well microtiter plates were treated with aqueous test solutions prepared from 10′000 ppm DMSO stock solutions by spraying. After drying, the plates were infested with L2 larvae (6 to 10 per well). The samples were assessed for mortality and growth inhibition in comparison to untreated samples 4 days after infestation.

[7] = test system: Chilo suppressalis (Striped Rice Stemborer); assay: Activity against Chilo suppressalis (striped rice stemborer), artificial diet in 24-well microtiter plates; conditions: 144 h, application rate 200 ppm, L2 larvae, 6 days after infestation, in comparison to untreated samples, read-out: control (at least one of mortality, anti-feedant effect, growth inhibition)
Description: Example B1: Activity Against Chilo suppressalis (Striped Rice Stemborer)
24-well microtiter plates with artificial diet were treated with aqueous test solutions prepared from 10′000 ppm DMSO stock solutions by pipetting. After drying, the plates were infested with L2 larvae (6-8 per well). The samples were assessed for mortality, anti-feeding effect, and growth inhibition in comparison to untreated samples 6 days after infestation. Control of Chilo suppressalis by a test sample is given when at least one of the categories mortality, anti-feedant effect, and growth inhibition is higher than the untreated sample.

CCS(=O)(=O)c1cc(C2(C#N)CC2)cnc1-c1c(C)oc2cc(C(F)(F)F)ccc2c1=O [P7, 1-[5-ethylsulfonyl-6-[2-methyl-4-oxo-7-(trifluoromethyl)chromen-3-yl]-3-pyridyl] cyclopropane-carbonitrile]
≥ 80%: effect (mortality or growth inhibition) at 200 ppm [1] | percent control (mortality or growth inhibition) at 200 ppm [2] | mortality at 24 ppm [3] | mortality at 200 ppm [4] | percent control (mortality, anti-feedant effect or growth inhibition) at 200 ppm [5] | percent control (mortality or growth inhibition) at 200 ppm [6] | percent control (mortality, anti-feedant effect or growth inhibition) at 200 ppm [7]

CCS(=O)(=O)c1cc(C2(C#N)CC2)cnc1-c1cn(C)c2cc(C(F)(F)F)ccc2c1=O [P14, 1-[5-ethylsulfonyl-6-[1-methyl-4-oxo-7-(trifluoromethyl)-3-quinolyl]-3-pyridyl]-cyclo-propanecarbonitrile]
≥ 80%: effect (mortality or growth inhibition) at 200 ppm [1] | percent control (mortality or growth inhibition) at 200 ppm [2] | mortality at 24 ppm [3] | mortality at 200 ppm [4] | percent control (mortality, anti-feedant effect or growth inhibition) at 200 ppm [5] | percent control (mortality or growth inhibition) at 200 ppm [6] | percent control (mortality, anti-feedant effect or growth inhibition) at 200 ppm [7]

CCSc1cc(C2(C#N)CC2)cnc1-c1coc2cc(C(F)(F)F)ccc2c1=O [P3, 1-[5-ethylsulfanyl-6-[4-oxo-7-(trifluoromethyl)chromen-3-yl]-3-pyridyl]cyclopropane-carbonitrile]
≥ 80%: effect (mortality or growth inhibition) at 200 ppm [1] | percent control (mortality or growth inhibition) at 200 ppm [2] | mortality at 200 ppm [4] | percent control (mortality, anti-feedant effect or growth inhibition) at 200 ppm [5] | percent control (mortality or growth inhibition) at 200 ppm [6]

CCS(=O)(=O)c1ccc(C2CC2)nc1-c1coc2cc(C(F)(F)F)ccc2c1=O [P10, 3-(6-cyclopropyl-3-ethylsulfonyl-2-pyridyl)-7-(trifluoromethyl) chromen-4-one]
≥ 80%: effect (mortality or growth inhibition) at 200 ppm [1] | mortality at 200 ppm [4] | percent control (mortality, anti-feedant effect or growth inhibition) at 200 ppm [5] | percent control (mortality or growth inhibition) at 200 ppm [6] | percent control (mortality, anti-feedant effect or growth inhibition) at 200 ppm [7]

CCS(=O)(=O)c1cccnc1-c1coc2cc(C(F)(F)F)ccc2c1=O [P2, 3-(3-ethylsulfonyl-2-pyridyl)-7-(trifluoromethyl)chromen-4-one]
≥ 80%: effect (mortality or growth inhibition) at 200 ppm [1] | percent control (mortality or growth inhibition) at 200 ppm [2] | mortality at 24 ppm [3] | mortality at 200 ppm [4] | percent control (mortality, anti-feedant effect or growth inhibition) at 200 ppm [5] | percent control (mortality or growth inhibition) at 200 ppm [6] | percent control (mortality, anti-feedant effect or growth inhibition) at 200 ppm [7]

CCS(=O)(=O)c1cc(C2(C#N)CC2)cnc1-c1coc2cc(OC(F)(F)F)ccc2c1=O [P15, 1-[5-ethylsulfonyl-6-[4-oxo-7-(trifluoromethoxy)chromen-3-yl]-3-pyridyl]-cyclopropane-carbonitrile]
≥ 80%: effect (mortality or growth inhibition) at 200 ppm [1] | percent control (mortality or growth inhibition) at 200 ppm [2] | mortality at 200 ppm [4] | percent control (mortality, anti-feedant effect or growth inhibition) at 200 ppm [5] | percent control (mortality or growth inhibition) at 200 ppm [6] | percent control (mortality, anti-feedant effect or growth inhibition) at 200 ppm [7]

CCS(=O)(=O)c1cc(C(C)(C)C#N)cnc1-c1coc2cc(C(F)(F)F)ccc2c1=O [P5, 2-[5-ethylsulfonyl-6-[4-oxo-7-(trifluoromethyl)chromen-3-yl]-3-pyridyl]-2-methyl-propane-nitrile]
≥ 80%: effect (mortality or growth inhibition) at 200 ppm [1] | percent control (mortality or growth inhibition) at 200 ppm [2] | mortality at 24 ppm [3] | mortality at 200 ppm [4] | percent control (mortality, anti-feedant effect or growth inhibition) at 200 ppm [5] | percent control (mortality or growth inhibition) at 200 ppm [6] | percent control (mortality, anti-feedant effect or growth inhibition) at 200 ppm [7]

CCS(=O)(=O)c1cc(-c2ccc(F)cc2)cnc1-c1coc2cc(C(F)(F)F)ccc2c1=O [P16, 3-[3-ethylsulfonyl-5-(4-fluorophenyl)-2-pyridyl]-7-(trifluoromethyl)chromen-4-one]
≥ 80%: percent control (mortality, anti-feedant effect or growth inhibition) at 200 ppm [5]

CCS(=O)(=O)c1cc(C2(C#N)CC2)cnc1-c1coc2cc(OC(F)F)ccc2c1=O [P13, 1-[6-[7-(difluoromethoxy)-4-oxo-chromen-3-yl]-5-ethylsulfonyl-3-pyridyl]-cyclo-propanecarbonitrile]
≥ 80%: effect (mortality or growth inhibition) at 200 ppm [1] | percent control (mortality or growth inhibition) at 200 ppm [2] | mortality at 24 ppm [3] | mortality at 200 ppm [4] | percent control (mortality, anti-feedant effect or growth inhibition) at 200 ppm [5] | percent control (mortality or growth inhibition) at 200 ppm [6] | percent control (mortality, anti-feedant effect or growth inhibition) at 200 ppm [7]

CCS(=O)(=O)c1cc(Br)cnc1-c1coc2cc(C(F)(F)F)ccc2c1=O [P9, 3-(5-bromo-3-ethylsulfonyl-2-pyridyl)-7-(trifluoromethyl)-chromen-4-one]
≥ 80%: effect (mortality or growth inhibition) at 200 ppm [1] | percent control (mortality, anti-feedant effect or growth inhibition) at 200 ppm [5] | percent control (mortality or growth inhibition) at 200 ppm [6] | percent control (mortality, anti-feedant effect or growth inhibition) at 200 ppm [7]

CCS(=O)(=O)c1cc(Br)cnc1-c1c(C)oc2cc(C(F)(F)F)ccc2c1=O [P8, 3-(5-bromo-3-ethylsulfonyl-2-pyridyl)-2-methyl-7-(trifluoromethyl) chromen-4-one]
≥ 80%: percent control (mortality, anti-feedant effect or growth inhibition) at 200 ppm [5] | percent control (mortality, anti-feedant effect or growth inhibition) at 200 ppm [7]

CCS(=O)(=O)c1cc(C2(C#N)CC2)cnc1-c1coc2cc(C(F)(F)F)ccc2c1=O [P4, 1-[5-ethylsulfonyl-6-[4-oxo-7-(trifluoromethyl)chromen-3-yl]-3-pyridyl]cyclopropane-carbonitrile]
≥ 80%: effect (mortality or growth inhibition) at 200 ppm [1] | percent control (mortality or growth inhibition) at 200 ppm [2] | mortality at 24 ppm [3] | mortality at 200 ppm [4] | percent control (mortality, anti-feedant effect or growth inhibition) at 200 ppm [5] | percent control (mortality or growth inhibition) at 200 ppm [6] | percent control (mortality, anti-feedant effect or growth inhibition) at 200 ppm [7]

CCS(=O)(=O)c1cc(C2CC2)cnc1-c1coc2cc(C(F)(F)F)ccc2c1=O [P11, 3-(5-cyclopropyl-3-ethylsulfonyl-2-pyridyl)-7-(trifluoromethyl) chromen-4-one]
≥ 80%: effect (mortality or growth inhibition) at 200 ppm [1] | percent control (mortality or growth inhibition) at 200 ppm [2] | mortality at 24 ppm [3] | mortality at 200 ppm [4] | percent control (mortality, anti-feedant effect or growth inhibition) at 200 ppm [5] | percent control (mortality or growth inhibition) at 200 ppm [6] | percent control (mortality, anti-feedant effect or growth inhibition) at 200 ppm [7]
